According to US20230002344A1, “NOVEL BENZOTHIOPHENE DERIVATIVES AND USE THEREOF FOR STIMULATING MITOCHONDRIAL TURNOVER” (NIBN, The National Institute For Biotechnology In The Negev …, priority 2019, published 2023):

Columns and labels:
Assay type in all cases: cell-based
INS1 cells [1] = test: Cell growth rate under doxycycline; settings: 1 mg/ml, 24, 48 and 72 hours
Description: (§1) INS1 (an insulin secreting cell line) cells (FIGS. 1A and 1B) and primary beta-cells (FIG. 1C) were treated with 1 mg/ml doxycycline for 72 hours. […] FIGS. 1B and 1C show basal Oxygen Consumption Rate (OCR) measured with Seahorse XF 24 respirometer. Average of 4 wells +/−SEM.

primary beta-cells = test: Basal oxygen consumption rate in primary beta-cells; settings: 1 mg/ml, 72 hours
Description: as §1

[2] = tested on: INS1 cells expressing MitoTimer; test: MitoTimer red/green ratio high-content screen and dose-response; settings: Rapamycin 100 nM, 18 h; for MitoTimer red/green ratio (known modulators): Urolithin 50 uM, Bafilomycin 200 nM, Chloroquine 20 uM
Description: INS1 cells were stably transduced with MitoTimer by lentiviral infection and were tested using known modulators of autophagy. The paradigm used was based on previous reports showing that the shift in emission from green to red occurs within 18 hours. Assuming that this shift is constant, changes in red FI occurring during this frame of time can result from an effect on MitoTimer clearance and not from an effect on synthesis. The paradigm employed consisted therefore of a treatment lasting 18 hours followed by imaging.
Stimulators of mitochondrial clearance were defined as those inducing a red-to-green FI below −3 and a red intensity below −5.1. Suppressors of mitochondrial clearance were defined as those inducing a red-to-green FI above 10.34 and a red intensity above 4.5. […] Compounds displaying high green FI (above 15) were also discarded to prevent the inclusion of autofluorescent molecules. Only molecules that filled the above criteria in both duplicates were further tested.
The screen was performed during 8 sessions in Weizmann institute. All compounds were tested at a concentration of 10 μM, in duplicates. The images were processed to reduce background (using Metamorph software) and then analyzed in GeneData software.
We subjected those compounds to a dose-response assay (concentrations: 10, 3.33, 1.11, 0.37 and 0.12 μM).
MitoTimer expressing INS1 cells generation, Cell Culture and treatments. MitoTimer-reporter was cloned into the pHAGE2 lenti-vector under the full-length EF1-alpha promoter to obtain constitutive expression. For the HCS, INS1 cells were infected with lentivirus carrying mitochondrial complex-I-targeted-MitoTimer plasmid. Highly expressing cells were selected by high speed fluorescence activated cell sorter (SY3200 cell sorter, Synergy, iCyt) and kept by the addition of puromycin (1 mg . L-1) in the cell media. Cells were thawed before each experiment, and MitoTimer expression checked through fluorescence.
High-Content Screening. […] HCS assay was developed at the Drug Discovery Unit, INCPM, Weizmann Institute of Science. […] Briefly, cells were treated with 10 uM of each compounds for 18 h and imaged in two wavelengths (FITC—excitation […], emission 520/35 nm and TRITC—excitation 543/22 nm, emission 593/40 nm) at ImageXpress Micro High-Content Imaging System/Molecular Devices. Rapamycin 100 nM was used as a control. In each cell plate, the neutral (DMSO) and positive control (Rapamycin) were repeated in 16 replicates while the treatments were performed in duplicates. Each plate was replicated and only hits found in the 2 independent plates were considered. Two fields of each well were analyzed, what normally allowed the analysis of 20-40 cells per condition. MitoTimer red/green ratio for every cell was done in MetaXpress. […] The compounds which affected MitoTimer red/green ratio in a dose response, ranging from […], were classified as a hit.
Individual cells were identified using the red channel, and red and green MitoTimer fluorescence were analyzed and ratio determined per cell.

INS1 cells [3] = test: Mitochondrial mass by Mitotracker green staining; settings: 18 h; SPB08007 25 μM, MWP00839 11.5 μM, Urolithin A 25 μM
Description: The Z-score depicts the standard deviation from the neutral control (DMSO). In FIG. 3C: Mitochondrial mass in INS1 cells treated for 18 hours with either DMSO (control), Urolithin A (25 μM), SPB08007 (“SBP”) (25 μM) or MWP00839 (“MWP”) (11.5 μM) and then stained with Mitotracker green (200 nM). In FIG. 3D: SPB08007 and MWP00839 increase the number of mitochondria inside autolysosomes. INS1 cells expressing mCherry-GFP were exposed to SPB08007, MWP00839, and DMSO for 8 hours and then subjected to confocal microscopy. The area of red fluorescence in the taken images was determined. N=3+/−SEM pANOVA<0.05. FIG. 3E provides representative images. […] FIG. 3F provides the Western blot against LC3 in INS1 cells treated with the compounds in presence or absence of bafilomycin (+b) for the last 2 hours.
Mitotracker Green Fluorescence, Anion Radical Superoxide and Mitochondrial Membrane Potential. INS1 cells were seeded into wells of a 96-wells glass bottom cell culture plate (CELLSTAR) at a density of 2*10^4 cells/well. To assess mitochondrial clearance, a pulse-chase experiment was performed. […] Results are expressed as the percentage of MTG fluorescence relative to MTG fluorescence of the “time 0” control. […] Integrated fluorescence of each field was analyzed in Image J after background subtraction and threshold (IsoData) application. Twenty-four fields of each condition were analyzed in each experiment.

C[C@H]1c2cccc(O)c2C(=O)C2=C(O)[C@]3(O)C(=O)C(C(N)=O)=C(O)[C@@H](N(C)C)[C@@H]3[C@@H](O)[C@@H]21 [Doxycycline]
cell growth (INS1 cells [1]): impairs | basal oxygen consumption rate (OCR) (primary beta-cells): impairs

CO[C@H]1C[C@@H]2CC[C@@H](C)[C@@](O)(O2)C(=O)C(=O)N2CCCC[C@H]2C(=O)O[C@H]([C@H](C)C[C@@H]2CC[C@@H](O)[C@H](OC)C2)CC(=O)[C@H](C)/C=C(\C)[C@@H](O)[C@@H](OC)C(=O)[C@H](C)C[C@H](C)/C=C/C=C/C=C/1C [Rapamycin, reference compound]
increase of MitoTimer red/green ratio [2]: 50%

O=c1oc2cc(O)ccc2c2ccc(O)cc12 [Urolithin A, reference compound]
mitochondrial mass (mitotracker green fluorescence) (INS1 cells [3]): reduction | MitoTimer red/green ratio (known modulators) [2]: significantly reduced

CO/C1=C\C(C)=C\[C@@H](C)[C@@H](O)[C@@H](C)C/C(C)=C/C=C/[C@H](OC)[C@@H]([C@@H](C)[C@@H](O)[C@H](C)[C@@]2(O)C[C@@H](O)[C@H](C)[C@@H](C(C)C)O2)OC1=O [bafilomycin A1, reference compound]
MitoTimer red/green ratio (known modulators) [2]: increased
